In patent US20110306621A1, “ACYLGUANIDINE DERIVATIVES” (priority 2009, published 2011):

Biological target: T1, human 5-HT5A receptor (Homo sapiens, UniProt P47898)
T1 construct: expressed in transfected cells; membranes used
Assay: Test on a human 5-HT5A receptor binding inhibition ([3H]5-CT)
Details: membrane from HEK293 cells for forced expression of human 5-HT5A receptor; Ki calculated from IC50 and Kd of [3H]5-CT (4.95 nM)
Experimental: The ORF (open reading frame; protein coding region) of a human 5-HT5A receptor (Genbank AF498985) was cloned from a human hippocampus cDNA library, and then inserted into a pCR2.1 vector (Invitrogen), and Escherichia coli containing the plasmid was cultured in a large amount. Next, the full-length cDNA sequence of the human 5-HT5A receptor was analyzed, and recombined into a pcDNA3.1 vector (Invitrogen) as an expression vector and cultured in a large amount. HEK293 established cells (ATCC) derived from the human fetal kidney were seeded, the expression plasmid (1 μg) obtained above were added thereto with LIPOFECTAMINE 2000 (Invitrogen; 2 μl), the gene was transfected into HEK293 cells, and the expression cells were screened with a drug-resistant marker, Geneticin (G418 sulfate 500 μg/ml; Kanto Chemical Co., Inc.). Thus prepared recombinant cells which expressed the gene were cultured in a medium containing D-MEM (Dulbecco's modified eagle medium, Sigma), 10% FCS (Fetal calf serum: fetal bovine serum), 1% Pc./Sm (Penicillin/Streptomycin, Invitrogen), and 500 μg/ml G418 for 3 days. These experimental operations followed a manual for gene operation experiment and an instruction appended in a reagent, and the like, such as a known method (Sambrook, J. et al, Molecular Cloning-A Laboratory Manual”, Cold Spring Harabor laboratory, NY, 1989).
HEK293 cells for forced expressions of a human 5-HT5A receptor were cultured in a F500 plate, and scraped with a scraper. After centrifugation, the precipitate was collected, and an incubation buffer (50 mM Tris (HCl) (pH 7.4), 10 mM MgSO4, and 0.5 mM EDTA (ethylenediamine tetraacetic acid)) was added thereto. After homogenization, it was further centrifuged, and the incubation buffer was added to the precipitate, followed by thoroughly suspending. The operation was repeated, and protein concentration was measured, thereby completing preparation of the membrane.
A solution of the compound to be tested and 100 μM 5-CT (5-carboxamidetriptamine) in DMSO was added to a 96-well plate at 2 μl/well, suspended in an incubation buffer, and a membrane from HEK293 cells for forced expressions of a human 5-HT5A receptor prepared at 200 μg/ml was added at 100 μl/well. After incubation at room temperature for 15 minutes, a [^3H]5-CT solution (2 nM [^3H]5-CT, incubation buffer) was added thereto at 100 μl/well.
Separately, 100 μl of the solution was distributed into a liquid scintillation vial, and 2 ml of Aquasol II (registered trademark) was added thereto, followed by stirring. Then, radioactivity was measured by a liquid scintillation counter. It was incubated at 37° C. for 60 minutes. The reaction mixture was sucked into 96-well GF/C filter plate that had been pre-treated with 0.2% polyethyleneimine, and washed six times with an ice-cooled, 50 mM Tris (pH 7.5) buffer. The GF/C filter plate was dried.
Microscint TMPS (registered trademark) was added thereto at 40 μl/well. Radioactivity remaining on the GF/C filter plate was measured by a top counter.
The [^3H]5-CT binding inhibiting activity by the compound to be tested in each experiment was determined as an IC50 value with a radioactivity upon addition of DMSO alone being 0% inhibition, and a radioactivity upon addition of 1 μM 5-CT being 100% inhibition. Separately, Ki values were calculated from the Kd value of the [^3H]5-CT determined from Scatchard analysis, by the following equation.
Ki=IC50 (1+Concentraion of ligand added/Kd (4.95 nM))

T1 sequence (P47898 whole entry): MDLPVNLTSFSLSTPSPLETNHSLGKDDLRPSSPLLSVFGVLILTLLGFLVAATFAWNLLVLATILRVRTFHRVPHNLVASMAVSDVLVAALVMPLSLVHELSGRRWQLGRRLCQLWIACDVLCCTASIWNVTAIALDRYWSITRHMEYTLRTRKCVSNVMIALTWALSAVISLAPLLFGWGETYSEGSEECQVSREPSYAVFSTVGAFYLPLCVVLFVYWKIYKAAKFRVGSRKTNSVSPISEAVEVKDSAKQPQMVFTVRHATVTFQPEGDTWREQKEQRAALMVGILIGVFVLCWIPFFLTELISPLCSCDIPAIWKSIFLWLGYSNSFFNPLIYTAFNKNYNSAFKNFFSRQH

SMILES | Ki
NC(N)=NC(=O)c1ccc2cccc(-c3cc(Cl)ccc3Cl)c2c1 [Example 76] | 0.3 to 3 nM
NC(N)=NC(=O)c1ccc2cccc(-c3cccc(F)c3Cl)c2c1 [Example 77] | 0.3 to 3 nM
NC(N)=NC(=O)c1ccc2cccc(-c3cc(F)ccc3Cl)c2c1 [Example 78] | 0.3 to 3 nM
Cn1nccc1-c1cccc2ccc(C(=O)N=C(N)N)cc12 [Example 79] | 3 to 30 nM
N#Cc1cccc(-c2cccc3ccc(C(=O)N=C(N)N)cc23)c1F [Example 80] | 0.3 to 3 nM
N#Cc1ccc(F)c(-c2cccc3ccc(C(=O)N=C(N)N)cc23)c1 [Example 81] | 0.3 to 3 nM
COc1ccc(-c2cccc3ccc(C(=O)N=C(N)N)cc23)c(F)c1 [Example 82] | 0.3 to 3 nM
COc1cc(F)c(-c2cccc3ccc(C(=O)N=C(N)N)cc23)c(F)c1 [Example 83] | 0.3 to 3 nM
NC(N)=NC(=O)c1ccc2cccc(-c3cc(Cl)cnc3F)c2c1 [Example 84] | 3 to 30 nM
N#Cc1c(Cl)cccc1-c1cccc2ccc(C(=O)N=C(N)N)cc12 [Example 85] | 0.3 to 3 nM
Cc1ccc(-c2cccc3ccc(C(=O)N=C(N)N)cc23)c(F)n1 [Example 86] | 3 to 30 nM
NC(N)=NC(=O)c1ccc2cccc(-c3ccccc3)c2c1 [Example 87] | 0.3 to 3 nM
NC(N)=NC(=O)c1ccc2cccc(-c3ccc(F)cc3)c2c1 [Example 88] | 0.3 to 3 nM
NC(N)=NC(=O)c1ccc2cccc(-c3ccc(Cl)cc3)c2c1 [Example 89] | 0.3 to 3 nM
COc1ccc(-c2cccc3ccc(C(=O)N=C(N)N)cc23)cc1 [Example 90] | 0.3 to 3 nM
Cn1ncc(Cl)c1-c1cccc2ccc(C(=O)N=C(N)N)cc12 [Example 91] | 3 to 30 nM
NC(N)=NC(=O)c1ccc2cccc(-c3cccc4c3OCO4)c2c1 [Example 92] | 0.3 to 3 nM
NC(N)=NC(=O)c1ccc2cccc(-c3ccccc3OC(F)F)c2c1 [Example 93] | 3 to 30 nM
NC(N)=NC(=O)c1ccc2cccc(-c3ccc(F)cc3OC(F)F)c2c1 [Example 94] | 3 to 30 nM
NC(N)=NC(=O)c1ccc2cccc(-c3cccc4c3OCC4)c2c1 [Example 95] | 0.3 to 3 nM
NC(N)=NC(=O)c1ccc2cccc(-c3cc(F)c(F)cc3F)c2c1 [Example 96] | 0.3 to 3 nM
COc1ccc(-c2cccc3ccc(C(=O)N=C(N)N)cc23)cn1 [Example 97] | 3 to 30 nM
COc1ccncc1-c1cccc2ccc(C(=O)N=C(N)N)cc12 [Example 98] | 30 to 300 nM
COc1cccc(-c2cccc3ccc(C(=O)N=C(N)N)cc23)c1C#N [Example 99] | 3 to 30 nM

SMILES | Ki
Cc1ccncc1-c1cccc2ccc(C(=O)N=C(N)N)cc12 [Example 100] | 3 to 30 nM
NC(N)=NC(=O)c1ccc2cccc(-c3ccccc3-c3ccccc3)c2c1 [Example 101] | 30 to 300 nM
NC(N)=NC(=O)c1ccc2cccc(-c3cccc4ccccc34)c2c1 [Example 102] | 3 to 30 nM
NC(N)=NC(=O)c1ccc2cccc(C3CC3)c2c1 [Example 103] | 3 to 30 nM
NC(N)=NC(=O)c1ccc2cccc(-c3c(O)cccc3F)c2c1 [Example 104] | 0.3 to 3 nM
NC(N)=NC(=O)c1ccc2cccc(-c3cccc(F)c3O)c2c1 [Example 105] | 0.3 to 3 nM
NC(N)=NC(=O)c1ccc2cccc(-c3cccc(O)c3F)c2c1 [Example 106] | 0.3 to 3 nM
NC(N)=NC(=O)c1ccc2cccc(-c3c(F)cccc3OC(F)F)c2c1 [Example 107] | 0.3 to 3 nM
NC(N)=NC(=O)c1ccc2cccc(-c3ncccc3Cl)c2c1 [Example 108] | 3 to 30 nM
NC(N)=NC(=O)c1ccc2cccc(-c3cccc4ncccc34)c2c1 [Example 109] | 0.3 to 3 nM
NC(N)=NC(=O)c1ccc2ccc(Cl)c(-c3ccccc3F)c2c1 [Example 110] | 0.3 to 3 nM
COc1cncc(-c2cccc3ccc(C(=O)N=C(N)N)cc23)c1 [Example 111] | 30 to 300 nM
COc1cc(-c2cccc3ccc(C(=O)N=C(N)N)cc23)ccn1 [Example 112] | 3 to 30 nM
NC(N)=NC(=O)c1ccc2ccc(F)c(-c3ccncc3F)c2c1 [Example 113] | 0.3 to 3 nM
Cc1ccc2ccc(C(=O)N=C(N)N)cc2c1-c1ccncc1F [Example 114] | 0.3 to 3 nM
NC(N)=NC(=O)c1ccc2cccc(-c3cccc4c3OC(F)(F)O4)c2c1 [Example 115] | 3 to 30 nM
NC(N)=NC(=O)c1ccc2cccc(-c3c(O)cccc3Cl)c2c1 [Example 116] | 0.3 to 3 nM
NC(N)=NC(=O)c1ccc2cccc(-c3c(O)ccc(F)c3F)c2c1 [Example 117] | 0.3 to 3 nM
NC(N)=NC(=O)c1ccc2cccc(-c3c(F)ccc(O)c3F)c2c1 [Example 118] | 0.3 to 3 nM
NC(N)=NC(=O)c1ccc2cccc(-c3c(F)ccc(O)c3Cl)c2c1 [Example 119] | 0.3 to 3 nM
COCc1cc(F)c(-c2cccc3ccc(C(=O)N=C(N)N)cc23)c(F)c1 [Example 120] | 3 to 30 nM
NC(N)=NC(=O)c1ccc2cccc(-c3c(F)cc(CO)cc3F)c2c1 [Example 121] | 0.3 to 3 nM
Cc1nc(-c2ccccc2)sc1-c1cccc2ccc(C(=O)N=C(N)N)cc12 [Example 122] | 3 to 30 nM
NC(N)=NC(=O)c1ccc2cccc(-c3cccc4cccnc34)c2c1 [Example 123] | 3 to 30 nM

SMILES | Ki
COc1ccccc1-c1c(Cl)ccc2ccc(C(=O)N=C(N)N)cc12 [Example 124] | 0.3 to 3 nM
N#Cc1ccc(-c2c(Cl)ccc3ccc(C(=O)N=C(N)N)cc23)cc1 [Example 125] | 0.3 to 3 nM
NC(N)=NC(=O)c1ccc2cccc(-c3ccc(F)c4c3C(=O)CC4)c2c1 [Example 126] | 30 to 300 nM
COc1c(F)cc(F)c(-c2cccc3ccc(C(=O)N=C(N)N)cc23)c1F [Example 127] | 3 to 30 nM
NC(N)=NC(=O)c1ccc2cccc(-c3cccc4cnccc34)c2c1 [Example 128] | 0.3 to 3 nM
NC(N)=NC(=O)c1ccc2cccc(-c3ccnc4ccccc34)c2c1 [Example 129] | 0.3 to 3 nM
NC(N)=NC(=O)c1ccc2cccc(-c3cncc4ccccc34)c2c1 [Example 130] | 3 to 30 nM
NC(N)=NC(=O)c1ccc2cccc(-c3c(O)cc(F)cc3F)c2c1 [Example 131] | 0.3 to 3 nM
N#Cc1ccc(-c2cccc3ccc(C(=O)N=C(N)N)cc23)c(O)c1 [Example 132] | 0.3 to 3 nM
NC(N)=NC(=O)c1ccc2cccc(-c3ccncc3)c2c1 [Example 133] | 3 to 30 nM
NC(N)=NC(=O)c1ccc2cccc(-c3ccc(F)cn3)c2c1 [Example 134] | 3 to 30 nM
NC(N)=NC(=O)c1ccc2cccc(-c3ncccc3F)c2c1 [Example 135] | 3 to 30 nM
COc1ccccc1-c1c(Cl)cc(Cl)c2ccc(C(=O)N=C(N)N)cc12 [Example 136] | 3 to 30 nM
Cc1nc(-c2ccc(-c3cccc4ccc(C(=O)N=C(N)N)cc34)cc2)no1 [Example 137] | 3 to 30 nM
NC(N)=NC(=O)c1ccc2cccc(-c3ccccc3C3CC3)c2c1 [Example 138] | 0.3 to 3 nM
NC(N)=NC(=O)c1ccc2cccc(-c3cc(Cl)c(F)cc3F)c2c1 [Example 139] | 0.3 to 3 nM
NC(N)=NC(=O)c1ccc2cccc(-c3c(F)cc(F)cc3Cl)c2c1 [Example 140] | 0.3 to 3 nM
Cc1cc(-c2cccc3ccc(C(=O)N=C(N)N)cc23)ccn1 [Example 141] | 3 to 30 nM
NC(N)=NC(=O)c1ccc2cccc(-c3c(F)cc(O)cc3F)c2c1 [Example 142] | 0.3 to 3 nM
NC(N)=NC(=O)c1ccc2cccc(-c3c(F)cc(F)c(O)c3F)c2c1 [Example 143] | 0.3 to 3 nM
Cc1nc2cccc(-c3cccc4ccc(C(=O)N=C(N)N)cc34)c2o1 [Example 144] | 3 to 30 nM
COc1cc(C#N)ccc1-c1c(Cl)ccc2ccc(C(=O)N=C(N)N)cc12 [Example 145] | 0.3 to 3 nM
COc1ncccc1-c1c(Cl)ccc2ccc(C(=O)N=C(N)N)cc12 [Example 146] | 0.3 to 3 nM
NC(N)=NC(=O)c1ccc2ccc(Cl)c(-c3ccncc3)c2c1 [Example 147] | 0.3 to 3 nM
